This note sets out measurements from ChEMBL document CHEMBL1201862, “PubChem BioAssay data set” (2004).

Active and inactive are the calls of the source.

Assay [1] can be described thus: blockers of HIV-1 envelope-mediated cell-cell fusion – cherry-pick, dose response (AID 652057). The class given is functional, cell-based.
A short description of assay [2]: blockers of HIV-1 ZM109 envelope-driven cell-cell fusion – HeLa effector, CEM target cells, luciferase, cherry-pick, dose response (AID 652058).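 Further: luciferase signal from HIV-1 Env mediated cell-cell fusion of effector and target cells.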 The class given is functional, cell-based.
The nature of assay [3]: off-target signal loss in HeLa-CEM21 co-culture – HeLa F-luc CTL cells, cherry-picked, counter-screen for HIV-1 Env fusion inhibitor project, dose response (AID 652040).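 Further: potency for signal decrease marking cytotoxic or nonspecific inhibition.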 Format: functional, cell-based.
Assay [4] in a line: HIV-1 AD8 envelope cell-cell fusion blockers – cherry-pick, dose response (AID 652062).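 Further: luciferase signal from cell-cell fusion driven by HIV-1 clade B AD8 Env; potency is for inhibitors of fusion seen as a drop in luminescence.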 The class given is functional, cell-based.
The next assay has as its target T1, Phospholipase D1 (Homo sapiens, UniProt Q13393).
T1 sequence (Q13393 whole entry): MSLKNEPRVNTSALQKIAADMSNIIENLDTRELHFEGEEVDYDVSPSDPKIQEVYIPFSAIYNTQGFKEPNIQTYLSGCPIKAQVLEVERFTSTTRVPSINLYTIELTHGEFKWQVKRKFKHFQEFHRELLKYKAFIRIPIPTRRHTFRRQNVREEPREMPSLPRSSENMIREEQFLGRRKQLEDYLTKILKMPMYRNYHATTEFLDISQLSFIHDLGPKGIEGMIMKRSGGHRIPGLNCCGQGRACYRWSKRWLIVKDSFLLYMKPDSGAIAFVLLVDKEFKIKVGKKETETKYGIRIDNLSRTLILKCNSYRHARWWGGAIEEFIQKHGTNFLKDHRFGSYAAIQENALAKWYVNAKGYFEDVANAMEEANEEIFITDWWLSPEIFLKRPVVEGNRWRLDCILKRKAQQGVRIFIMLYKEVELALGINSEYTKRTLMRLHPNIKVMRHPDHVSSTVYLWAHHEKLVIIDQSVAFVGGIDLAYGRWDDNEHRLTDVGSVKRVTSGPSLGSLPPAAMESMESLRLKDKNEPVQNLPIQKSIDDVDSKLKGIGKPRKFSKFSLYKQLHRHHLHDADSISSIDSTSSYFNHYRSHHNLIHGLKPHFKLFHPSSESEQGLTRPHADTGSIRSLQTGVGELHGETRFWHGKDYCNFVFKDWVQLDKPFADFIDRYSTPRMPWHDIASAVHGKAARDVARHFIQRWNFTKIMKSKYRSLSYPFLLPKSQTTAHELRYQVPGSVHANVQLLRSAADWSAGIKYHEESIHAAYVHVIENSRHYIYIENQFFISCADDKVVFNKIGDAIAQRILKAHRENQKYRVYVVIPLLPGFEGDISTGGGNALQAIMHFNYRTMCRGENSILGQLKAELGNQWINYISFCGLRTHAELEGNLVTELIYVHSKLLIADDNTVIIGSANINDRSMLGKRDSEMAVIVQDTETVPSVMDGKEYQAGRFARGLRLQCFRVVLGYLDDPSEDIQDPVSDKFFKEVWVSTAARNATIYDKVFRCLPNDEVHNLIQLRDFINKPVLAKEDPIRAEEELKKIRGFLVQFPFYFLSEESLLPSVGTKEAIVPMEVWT
Briefly: cellular phospholipase D1 inhibition IC50 – cell-based, dose response (AID 602151).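 Further: cellular PLD1 assay in Calu-1 cells stimulated with PMA.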 Format: functional.

The next assay concerns the target Phospholipase D2 (Homo sapiens, UniProt O14939). Briefly: cellular phospholipase D2 inhibition IC50 – cell-based, dose response (AID 602147).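 Further: cellular assay in HEK293 cells overexpressing GFP-tagged PLD2.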 Format: functional.
The target of assay [5] is Beta-2 adrenergic receptor (Homo sapiens, UniProt P07550). Briefly: ADRB2 activation measured by internalization – cell-based, FAP fluorogen, flow cytometry, cherry pick 1, dose response (AID 588763). The class given is functional.
The nature of assay [6]: T. cruzi growth inhibition in host cells, dose response, cell-based, plate reader, dry powder, set 2 (AID 652275). The class given is functional.
In assay [7] the target is T2, RNA-binding protein pos-1 (Caenorhabditis elegans, UniProt G5EF15).
T2 sequence (G5EF15 whole entry): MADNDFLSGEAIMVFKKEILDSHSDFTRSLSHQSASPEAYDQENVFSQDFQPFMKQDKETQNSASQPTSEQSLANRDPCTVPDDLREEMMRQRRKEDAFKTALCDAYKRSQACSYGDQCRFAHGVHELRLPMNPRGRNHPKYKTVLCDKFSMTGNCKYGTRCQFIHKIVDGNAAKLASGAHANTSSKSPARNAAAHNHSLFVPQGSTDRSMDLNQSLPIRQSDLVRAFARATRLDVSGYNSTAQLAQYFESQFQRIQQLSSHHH
Briefly: disruptors of C. elegans POS-1 RNA interaction – biochemical, fluorescence polarization, dose response (AID 1964).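 Further: purified POS-1 fused to maltose binding protein made in E. coli; potency of compounds blocking POS-1 binding to fluorescent RNA.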

Assay [8] deals with Peroxisome proliferator-activated receptor gamma/Nuclear receptor coactivator 1 (Homo sapiens, UniProt P37231). Briefly: TR-FRET dose response biochemical High Throughput Screening assay for agonists of the steroid receptor coactivator 1 (SRC-1) recruitment by the peroxisome proliferator-activated receptor gamma (PPAR gamma): non-selective agonists. [Related pubchem assays (depositor defined):AID1300, AID1808, AID504735, AID631]. Format: protein assay.

The target in assay [9] is Peroxisome proliferator-activated receptor gamma/Nuclear receptor coactivator 3 (Homo sapiens, UniProt P37231). Briefly: TR-FRET dose response biochemical High Throughput Screening assay for agonists of the steroid receptor coactivator 3 (SRC-3) recruitment by the peroxisome proliferator-activated receptor gamma (PPAR gamma): non-selective agonists. [Related pubchem assays: 1301 (Confirmation screen.), 1048 (Primary screen.)]. The class given is functional. (In general: TR-FRET usually uses a lanthanide donor and a delayed reading to cut background.)

The target of assay [10] is T3, Zinc finger protein mex-5 (Caenorhabditis elegans, UniProt Q9XUB2).
T3 sequence (Q9XUB2 whole entry): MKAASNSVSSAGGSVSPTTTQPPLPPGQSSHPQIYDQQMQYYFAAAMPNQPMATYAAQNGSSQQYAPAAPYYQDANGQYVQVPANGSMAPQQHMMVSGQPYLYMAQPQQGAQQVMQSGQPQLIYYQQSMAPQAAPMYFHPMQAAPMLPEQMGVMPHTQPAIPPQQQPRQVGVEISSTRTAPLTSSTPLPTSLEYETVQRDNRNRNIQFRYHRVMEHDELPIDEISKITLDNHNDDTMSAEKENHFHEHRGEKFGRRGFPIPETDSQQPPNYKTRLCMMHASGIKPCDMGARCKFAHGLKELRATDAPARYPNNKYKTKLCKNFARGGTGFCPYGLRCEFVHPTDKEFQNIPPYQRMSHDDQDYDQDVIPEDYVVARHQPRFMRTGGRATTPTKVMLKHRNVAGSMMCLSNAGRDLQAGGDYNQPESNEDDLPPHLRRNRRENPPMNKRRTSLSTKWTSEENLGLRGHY
Briefly: potency of MEX-5 RNA-binding blockers – biochemical, C. elegans, fluorescence polarization, dose response (AID 1960).

Assay [11] concerns the target Peroxisome proliferator-activated receptor gamma/Nuclear receptor coactivator 2 (Homo sapiens, UniProt P37231). Briefly: TR-FRET dose response biochemical High Throughput Screening assay for agonists of the steroid receptor coactivator 2 (SRC-2) recruitment by the peroxisome proliferator-activated receptor gamma (PPAR gamma): non-selective agonists. [Related pubchem assays: 1297, 1032 ]. Format: functional.

Phospholipase D2, sequence (O14939 whole entry): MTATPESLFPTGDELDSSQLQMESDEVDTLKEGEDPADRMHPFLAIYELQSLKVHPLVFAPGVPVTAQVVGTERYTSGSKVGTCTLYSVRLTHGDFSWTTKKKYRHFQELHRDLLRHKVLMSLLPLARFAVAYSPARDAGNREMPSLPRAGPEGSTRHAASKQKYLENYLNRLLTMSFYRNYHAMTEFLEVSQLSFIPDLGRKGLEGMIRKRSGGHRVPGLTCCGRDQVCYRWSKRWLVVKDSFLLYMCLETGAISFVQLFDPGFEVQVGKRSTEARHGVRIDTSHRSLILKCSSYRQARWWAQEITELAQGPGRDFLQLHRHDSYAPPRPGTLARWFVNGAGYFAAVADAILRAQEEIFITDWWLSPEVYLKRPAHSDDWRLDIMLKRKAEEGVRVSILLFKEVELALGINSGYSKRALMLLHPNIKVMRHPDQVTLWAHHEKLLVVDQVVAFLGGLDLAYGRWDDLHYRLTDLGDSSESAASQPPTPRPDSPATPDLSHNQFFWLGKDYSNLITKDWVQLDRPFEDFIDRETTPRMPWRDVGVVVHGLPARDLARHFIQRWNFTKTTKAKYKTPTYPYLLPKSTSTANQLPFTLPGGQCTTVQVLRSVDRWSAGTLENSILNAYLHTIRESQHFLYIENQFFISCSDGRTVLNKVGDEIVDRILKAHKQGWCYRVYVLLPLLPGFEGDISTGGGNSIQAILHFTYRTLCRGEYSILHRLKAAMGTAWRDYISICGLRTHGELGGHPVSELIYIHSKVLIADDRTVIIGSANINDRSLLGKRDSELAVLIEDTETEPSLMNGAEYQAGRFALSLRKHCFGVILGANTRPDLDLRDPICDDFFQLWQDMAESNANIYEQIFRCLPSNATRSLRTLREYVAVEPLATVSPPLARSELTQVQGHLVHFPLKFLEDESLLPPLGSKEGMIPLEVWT
Beta-2 adrenergic receptor, sequence (P07550 whole entry): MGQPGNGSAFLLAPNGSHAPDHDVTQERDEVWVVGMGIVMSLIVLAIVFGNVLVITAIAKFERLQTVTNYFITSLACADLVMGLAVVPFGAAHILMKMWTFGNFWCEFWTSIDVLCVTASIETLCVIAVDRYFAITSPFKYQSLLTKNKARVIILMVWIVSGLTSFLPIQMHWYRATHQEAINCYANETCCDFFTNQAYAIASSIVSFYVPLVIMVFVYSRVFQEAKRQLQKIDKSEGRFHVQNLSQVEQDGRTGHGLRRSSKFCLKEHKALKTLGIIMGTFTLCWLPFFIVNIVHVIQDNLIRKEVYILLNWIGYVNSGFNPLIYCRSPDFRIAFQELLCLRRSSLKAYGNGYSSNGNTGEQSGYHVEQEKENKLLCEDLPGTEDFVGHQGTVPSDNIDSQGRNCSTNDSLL
Peroxisome proliferator-activated receptor gamma/Nuclear receptor coactivator 2, sequence (P37231 whole entry): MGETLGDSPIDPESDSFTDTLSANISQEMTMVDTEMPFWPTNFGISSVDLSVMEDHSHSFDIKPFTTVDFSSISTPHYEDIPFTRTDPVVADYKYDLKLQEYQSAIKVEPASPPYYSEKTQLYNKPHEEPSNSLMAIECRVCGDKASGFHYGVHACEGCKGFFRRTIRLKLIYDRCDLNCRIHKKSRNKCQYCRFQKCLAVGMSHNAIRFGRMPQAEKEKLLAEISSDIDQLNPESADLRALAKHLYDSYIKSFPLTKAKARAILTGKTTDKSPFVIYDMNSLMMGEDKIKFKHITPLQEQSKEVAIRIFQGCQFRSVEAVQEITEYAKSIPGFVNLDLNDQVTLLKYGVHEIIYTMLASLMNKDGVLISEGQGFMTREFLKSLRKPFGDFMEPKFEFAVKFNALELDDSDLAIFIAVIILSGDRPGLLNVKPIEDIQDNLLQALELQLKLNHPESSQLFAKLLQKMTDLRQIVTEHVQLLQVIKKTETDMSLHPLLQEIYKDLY
Peroxisome proliferator-activated receptor gamma/Nuclear receptor coactivator 2, sequence (Q15596 whole entry, further chain): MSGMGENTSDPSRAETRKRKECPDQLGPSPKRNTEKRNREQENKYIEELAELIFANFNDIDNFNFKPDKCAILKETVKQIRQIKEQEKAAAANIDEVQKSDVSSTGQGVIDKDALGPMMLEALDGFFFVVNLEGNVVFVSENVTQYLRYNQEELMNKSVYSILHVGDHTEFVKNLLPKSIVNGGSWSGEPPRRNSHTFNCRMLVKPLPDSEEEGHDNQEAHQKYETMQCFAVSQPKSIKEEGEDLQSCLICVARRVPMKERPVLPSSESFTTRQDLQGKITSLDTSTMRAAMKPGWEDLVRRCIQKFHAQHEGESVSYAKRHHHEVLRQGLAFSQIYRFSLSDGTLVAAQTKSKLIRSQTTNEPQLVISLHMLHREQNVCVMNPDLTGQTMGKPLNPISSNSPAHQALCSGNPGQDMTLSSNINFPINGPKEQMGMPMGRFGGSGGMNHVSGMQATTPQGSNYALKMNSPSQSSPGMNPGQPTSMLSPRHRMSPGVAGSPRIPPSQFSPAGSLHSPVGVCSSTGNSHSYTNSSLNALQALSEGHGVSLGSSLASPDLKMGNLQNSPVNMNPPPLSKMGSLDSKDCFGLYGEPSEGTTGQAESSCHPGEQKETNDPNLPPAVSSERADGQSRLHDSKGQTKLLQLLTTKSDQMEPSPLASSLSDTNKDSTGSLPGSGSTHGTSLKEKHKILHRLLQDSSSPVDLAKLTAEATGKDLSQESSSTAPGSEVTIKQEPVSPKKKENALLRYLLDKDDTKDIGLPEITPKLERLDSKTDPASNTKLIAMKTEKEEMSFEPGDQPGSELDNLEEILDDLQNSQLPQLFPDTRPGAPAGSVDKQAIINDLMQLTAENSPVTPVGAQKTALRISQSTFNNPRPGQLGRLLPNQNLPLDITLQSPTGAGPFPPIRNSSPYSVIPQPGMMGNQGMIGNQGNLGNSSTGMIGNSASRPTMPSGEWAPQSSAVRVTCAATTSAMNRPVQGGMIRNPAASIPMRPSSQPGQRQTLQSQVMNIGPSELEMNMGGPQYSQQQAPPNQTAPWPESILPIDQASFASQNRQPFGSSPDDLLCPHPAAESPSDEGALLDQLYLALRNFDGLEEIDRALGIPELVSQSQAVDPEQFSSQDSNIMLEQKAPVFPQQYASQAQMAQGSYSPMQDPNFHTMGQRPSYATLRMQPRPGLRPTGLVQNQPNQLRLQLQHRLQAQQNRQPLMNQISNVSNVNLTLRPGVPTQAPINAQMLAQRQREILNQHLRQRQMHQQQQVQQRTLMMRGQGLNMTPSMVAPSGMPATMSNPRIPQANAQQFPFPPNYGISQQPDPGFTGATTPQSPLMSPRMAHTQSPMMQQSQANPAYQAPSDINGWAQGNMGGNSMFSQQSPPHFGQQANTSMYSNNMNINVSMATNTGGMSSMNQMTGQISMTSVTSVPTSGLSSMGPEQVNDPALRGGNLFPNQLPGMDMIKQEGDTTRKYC

Turning to `CCN1C(=O)[C@H]2[C@@H](c3ccc(C)cc3)N3C(=O)N(c4ccc(C(F)(F)F)cc4)C(=O)[C@@]3(CC(C)C)[C@H]2C1=O`, the concentration at half-maximal activity (AC50) is 2 µM (active) in [1], 3.63 µM (active) in [2], 2.35 µM (active) in [3] and 4.99 µM (active) in assay [4].

`CC(C)[C@@H](CN1CCC2(CC1)C(=O)NCN2c1ccccc1)NC(=O)c1cc2ccccc2[nH]1`: the concentration for half-maximal inhibition (IC50) is 0.007 µM (active) on Phospholipase D1 and 0.029 µM (active) on Phospholipase D2.

Turning to `CCCCC(=O)Nc1ccc(C(=O)N2CCCC(C(=O)OCC)C2)cc1` (stereo not drawn), the concentration giving a half-maximal response (EC50) in assay [5] was 5.72 µM (active).

For `CC(C)(C)[S+]([O-])N1Cc2cc(C(=O)NCc3ccc4c(c3)OCO4)nc(-c3cccc(-c4cccc(F)c4)c3)c2[C@@H]1CCO` (stereo partly drawn), the concentration at half-maximal activity (AC50) in [6] was 1.74 µM (active).

Take `CCCCOc1cccc(C(=O)Nc2ccc(NC(=O)c3ccco3)cc2)c1`: the EC50 in assay [5] is 0.222 µM (active).

Take `C[C@@H](CN1CCC(n2c(=O)[nH]c3ccccc32)CC1)NC(=O)c1cccnc1`: the concentration for half-maximal inhibition (IC50) on Phospholipase D1 was 0.085 µM (active); at Phospholipase D2, 14 µM (active).

In the case of `COc1ccc(C2C(C(=O)c3ccco3)=C(O)C(=O)N2c2nnc(C)s2)cc1` (stereo not drawn), the EC50 is 109 µM (active) in [7]; 19.8 µM (inactive) in assay [8]; > 79.4 µM (not active) in assay [9]; 216 µM (active) in [10]; 18.7 µM (not active) in assay [11].

As for `COc1cc2c(c(OC)c1OC)[C@@]1(c3ccccc3)CCCC[C@H]1[C@@H]2NC(=O)C(F)(F)F`, the AC50 is 6.21 µM (active) in assay [1], 7.65 µM (active) in assay [2] and 5.7 µM (active) in [3].

For `COc1ccc(C2/C=C\CN(Cc3ccc(N(C)C)cc3)CC(=O)N2Cc2ccc(F)cc2)cc1` (stereo not drawn), in assay [5], the half-maximal effective concentration (EC50) was 4.34 µM (active).

In the case of `C[C@@H](CN1CCC2(CC1)C(=O)NCN2c1ccc(F)c(F)c1)NC(=O)c1cnc2ccccc2c1`, the IC50 at Phospholipase D1 is 0.016 µM (active); at Phospholipase D2, 0.076 µM (active).

Take `COCCn1c(=S)[nH]c2cc(C(=O)N3CCN(Cc4ccc5c(c4)OCO5)CC3)ccc2c1=O`: the AC50 was 29.3 µM (active) in assay [1], 60.2 µM (active) in assay [3] and 44.6 µM (active) in assay [4].

On to `O=C(NCCN1CCC(n2c(=O)[nH]c3cc(I)ccc32)CC1)C1CC1c1ccccc1` (stereo not drawn), for which the 50% inhibitory concentration (IC50) on Phospholipase D1 was 0.009 µM (active); at Phospholipase D2, 0.345 µM (active).

Take `CN(C)C(=O)c1cccc(-c2ccc([C@@H]3[C@H](CO)N4CCCCN(C(=O)C5CCC5)C[C@@H]34)cc2)c1`: the AC50 in assay [6] is 4.83 µM (active).

Usually AC50 stands for the midpoint of the concentration-response curve, whichever way the signal moves. As a reminder, the IC50 is the midpoint of a concentration-inhibition curve. The term EC50 denotes the midpoint of the concentration-response curve.
